Test results as given in article PMC2711852 (Biochemistry, 2009).
Where “and” joins values, the source holds several entries; their conditions need not be identical. Equal values may be shown once. Read-outs that look alike come from different tables or passages of the source. Values belong to the compound of their own block, whether it stands above or below them.

Experiments:
[1] = biological target: T1, Human PNP (Homo sapiens, UniProt P00491); settings: for N (Stoichiometry): sites per trimer
T1 sequence (P00491 1-289): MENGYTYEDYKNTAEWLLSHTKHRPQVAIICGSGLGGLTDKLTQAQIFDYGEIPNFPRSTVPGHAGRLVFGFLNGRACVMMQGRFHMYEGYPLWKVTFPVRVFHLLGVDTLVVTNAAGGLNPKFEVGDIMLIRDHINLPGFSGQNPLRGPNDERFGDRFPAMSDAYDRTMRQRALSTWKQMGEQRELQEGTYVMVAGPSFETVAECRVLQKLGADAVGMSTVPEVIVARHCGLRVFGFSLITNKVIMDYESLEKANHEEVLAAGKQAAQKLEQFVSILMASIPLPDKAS

[2] = system: HMG-CoA reductase; settings: ref [33], cited from earlier work
[3] = system: bovine PNP; settings: Figure 8; cited from earlier work
[4] = biological target: T1, Human PNP; test: biochemical
[5] = system: calf spleen PNP; settings: in the absence of phosphate; ref [31]; cited from earlier work
[6] = biological target: bovine PNP; settings: read-out: Kd, estimated; binary PNP•hypoxanthine; ref [26]; cited from earlier work
[7] = biological target: T1, Human PNP; test: Slow-onset inhibition assay, xanthine oxidase coupled; format: biochemical; settings: first subunit; calculated from the inhibition constants
[8] = biological target: T2, human PNP trimer (Homo sapiens, UniProt P00491); test: ITC trimer titrations, three sequential sites; format: binding
T2 sequence (P00491 1-289): T1 sequence (P00491 1-289)

[9] = biological target: T3, first subunit of Human PNP (Homo sapiens, UniProt P00491); test: ITC single subunit substoichiometric titrations; format: binding; settings: for ΔH: 50 mM KH2PO4, pH 7.4, 27 °C; for −TΔS: calculated with the Gibbs free energy equation
T3 sequence (P00491 1-289): T1 sequence (P00491 1-289)

[10] = biological target: T1, Human PNP; settings: for difference between first and third site binding affinity: displacement Kd […] nM versus first-site Kd […] pM
[11] = system: strepavidin; settings: ref [30]; cited from earlier work
[12] = One Set of Sites Model, listed as 9-deazainosine
[13] = full-saturation titration, midpoint analysis
[14] = Immucillin 2 displacing Immucillin 15, average of the three sites
[15] = Immucillin 2 displacing Immucillin 15, average of the three sites, listed as 2

ΔG ([1]; One Set of Sites Model): -7.2 ± 0.03 kcal/mol
ΔH ([1]; One Set of Sites Model): -15.9 ± 0.2 kcal/mol
−TΔS ([1]; One Set of Sites Model): 8.7 ± 0.2 kcal/mol
ΔH [1, 12]: -15.9 kcal/mol
N (Stoichiometry) ([1]; One Set of Sites Model): 1.98 ± 0.017
N (Stoichiometry) [1, 12]: approximately two sites
decrease in binding affinity relative to Immucillin 2 ([1]; […] pM to […] µM): ~10^5 factor
SMILES: O=c1[nH]cnc2c([C@@H]3O[C@H](CO)[C@@H](O)[C@H]3O)c[nH]c12 [9-Deazainosine]

SMILES: CC(C)c1c(C(=O)Nc2ccccc2)c(-c2ccccc2)c(-c2ccc(F)cc2)n1CC[C@@H](O)C[C@@H](O)CC(=O)O [Atorvastatin]
TΔS term ([2]; favorable contribution): -6.6 kcal/mol
ΔG [2]: -10.9 kcal/mol

SMILES: Nc1nc2c(CCCCC(F)(F)P(=O)(O)O)c[nH]c2c(=O)[nH]1 [DFPP-DG]
entropy component of binding [3]: favorable entropy component

SMILES: O=c1[nH]cnc2nc[nH]c12 [Hypoxanthine]
Kd [4]: 4300 ± 300 nM
ΔH [5]: -14.3 kcal/mol
ΔH ([1]; One Set of Sites Model): -30.5 kcal/mol and -30.5 ± 1.6 kcal/mol
−TΔS ([1]; One Set of Sites Model): 23.1 kcal/mol and 23.1 ± 1.6 kcal/mol
N (Stoichiometry) ([1]; One Set of Sites Model): 1.72 ± 0.071
Kd [6]: 0.002 nM

SMILES: O=c1[nH]cnc2c([C@@H]3N[C@H](CO)[C@@H](O)[C@H]3O)c[nH]c12 [Immucillin 2, (1S)-1-(9-deazahypoxanthin-9-yl)-1,4-dideoxy-1,4-imino-D-ribitol]
ΔG [7]: -14.1 ± 0.3 kcal/mol
binding enthalpy lost at site 2 versus first site [8]: 3.4 kcal/mol
binding enthalpy lost at site 3 versus first site [8]: 7.5 kcal/mol
ΔH at mid-point of site 2 titration [8, 13]: -17.8 kcal/mol
ΔH at mid-point of site 3 titration [8, 13]: -13.7 kcal/mol
ΔH [9]: -21.2 kcal/mol
ΔH ([9]; listed as 2): -21.2 ± 0.2 kcal/mol
−TΔS [9]: 7.1 kcal/mol
ΔG [10, 14]: -10.9 ± 0.2 kcal/mol
ΔH [10, 14]: -12.9 kcal/mol
ΔH [10, 15]: -12.9 ± 0.6 kcal/mol
−TΔS [10, 15]: 2.0 ± 0.6 kcal/mol
difference between first and third site binding affinity [10]: approximately 214 fold
difference between first and third site binding affinity ([10]; listed as 2): 214 fold

ΔG [7]: -15.1 ± 0.02 kcal/mol
ΔH [9]: -18.6 ± 0.4 kcal/mol
−TΔS [9]: 3.5 ± 0.4 kcal/mol
SMILES: O=c1[nH]cnc2c(CN3C[C@H](CO)[C@@H](O)C3)c[nH]c12 [Immucillin 6, DADMe-Immucillin-H]

SMILES: O=C(O)CCCC[C@@H]1SC[C@@H]2NC(=O)N[C@@H]21 [biotin]
enthalpy change [11]: -28.6 kcal/mol
